Measured values reported in ChEMBL document CHEMBL1201862, “PubChem BioAssay data set” (2004).
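Each compound was tested at five concentrations against cells in 96-well plates for 48 hours. GI50: concentration for 50% inhibition of growth.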 The source made the active and inactive calls. Cut-off read from the data, not from the text of the source: active = GI50 up to about 1.1 µM and inactive = higher.

Columns and labels:
Experiment in all cases: NCI tumour cell line growth inhibition, 48 h
CCRF-CEM = tested on: CCRF-CEM
CAKI-1 = tested on: CAKI-1
ACHN = tested on: ACHN
SN12C = tested on: SN12C
EKVX = tested on: EKVX
UACC-257 = tested on: UACC-257
NCI-H522 = tested on: NCI-H522
OVCAR-4 = tested on: OVCAR-4
SNB-75 = tested on: SNB-75
IGROV-1 = tested on: IGROV-1
SK-MEL-28 = tested on: SK-MEL-28
KM12 = tested on: KM12
TK-10 = tested on: TK-10
OVCAR-5 = tested on: OVCAR-5
OVCAR-8 = tested on: OVCAR-8
HOP-92 = tested on: HOP-92
OVCAR-3 = tested on: OVCAR-3
SK-MEL-2 = tested on: SK-MEL-2
SNB-78 = tested on: SNB-78
KM-20L2 = tested on: KM-20L2

SMILES	GI50 (CCRF-CEM)	GI50 (CAKI-1)	GI50 (ACHN)	GI50 (SN12C)	GI50 (EKVX)	GI50 (UACC-257)	GI50 (NCI-H522)	GI50 (OVCAR-4)	GI50 (SNB-75)	GI50 (IGROV-1)	GI50 (SK-MEL-28)	GI50 (KM12)	GI50 (TK-10)	GI50 (OVCAR-5)	GI50 (OVCAR-8)	GI50 (HOP-92)	GI50 (OVCAR-3)	GI50 (SK-MEL-2)	GI50 (SNB-78)	GI50 (KM-20L2)
C=C(C)[C@@H]1CCC2=C[C@H](CC(C)=CC3=CC(C)=C(O3)[C@@H]1OC)OC2=O	> 100 µM (inactive)	> 100 µM (inactive)	76.6 µM (inactive)	> 100 µM (inactive)	59.2 µM (inactive)	> 100 µM (inactive)	> 100 µM (inactive)	> 100 µM (inactive)	63.5 µM (inactive)	> 100 µM (inactive)	> 100 µM (inactive)	> 100 µM (inactive)	85.3 µM (inactive)	> 100 µM (inactive)	40.7 µM (inactive)	33.3 µM (inactive)	> 100 µM (inactive)	20.9 µM (inactive)		
COC(=O)C12CC3CC(CC(C(=O)O)(C3)C1)C2	> 100 µM (inactive)	> 100 µM (inactive)	> 100 µM (inactive)	> 100 µM (inactive)	> 100 µM (inactive)	> 100 µM (inactive)	> 100 µM (inactive)	> 100 µM (inactive)	> 100 µM (inactive)	> 100 µM (inactive)	> 100 µM (inactive)	> 100 µM (inactive)	> 100 µM (inactive)	> 100 µM (inactive)	> 100 µM (inactive)	> 100 µM (inactive)	> 100 µM (inactive)		> 100 µM (inactive)	> 100 µM (inactive)
CCOC(=O)c1ccc(N(CCOS(=O)(=O)c2ccc(C)cc2)CCOS(=O)(=O)c2ccc(C)cc2)cc1	2.47 µM (inactive)	4.94 µM (inactive)	6.78 µM (inactive)	< 0.01 µM (active)	> 100 µM (inactive)	> 100 µM (inactive)	> 100 µM (inactive)	32.8 µM (inactive)		> 100 µM (inactive)		> 100 µM (inactive)	> 100 µM (inactive)	> 100 µM (inactive)	> 100 µM (inactive)	> 100 µM (inactive)	> 100 µM (inactive)	19.8 µM (inactive)		
COC(=O)c1ccc(/N=N/N(C)COc2ccc([N+](=O)[O-])cc2)cc1	58.2 µM (inactive)			> 100 µM (inactive)	> 100 µM (inactive)	> 100 µM (inactive)	> 100 µM (inactive)	> 100 µM (inactive)	54.6 µM (inactive)	> 100 µM (inactive)	> 100 µM (inactive)	81.8 µM (inactive)		> 95.7 µM (inactive)	> 100 µM (inactive)	65.3 µM (inactive)	> 100 µM (inactive)	> 80.9 µM (inactive)	> 100 µM (inactive)	54.3 µM (inactive)
O=C1C(Cl)N(c2cccc(Cl)c2)C1c1c[nH]c2ccccc12 (stereo unspecified)	> 100 µM (inactive)			> 100 µM (inactive)	> 100 µM (inactive)	> 100 µM (inactive)	> 100 µM (inactive)	> 100 µM (inactive)	> 100 µM (inactive)	> 100 µM (inactive)	> 100 µM (inactive)	> 100 µM (inactive)	> 100 µM (inactive)		> 100 µM (inactive)	> 100 µM (inactive)	> 100 µM (inactive)	> 100 µM (inactive)		> 100 µM (inactive)
O=C(O)Cc1cccc2c1Oc1ccccc1S2	> 100 µM (inactive)		> 100 µM (inactive)	> 100 µM (inactive)	> 100 µM (inactive)	> 100 µM (inactive)		> 100 µM (inactive)	> 100 µM (inactive)	> 100 µM (inactive)	> 100 µM (inactive)	> 100 µM (inactive)	> 100 µM (inactive)		> 100 µM (inactive)	> 100 µM (inactive)	> 100 µM (inactive)	> 100 µM (inactive)	> 100 µM (inactive)	> 100 µM (inactive)
Clc1cc2c(c(CSC3=NCN(CC4CC4)CN3)c1)OCOC2	5.35 µM (inactive)	34.2 µM (inactive)	17.6 µM (inactive)	28.6 µM (inactive)	20 µM (inactive)	16.2 µM (inactive)	14.5 µM (inactive)	34.3 µM (inactive)	18.4 µM (inactive)	35.9 µM (inactive)	19.8 µM (inactive)	30.8 µM (inactive)	17.2 µM (inactive)	21 µM (inactive)	26.9 µM (inactive)	37.6 µM (inactive)	23.4 µM (inactive)	19.1 µM (inactive)		
CN1NC(c2ccccc2)=C(C#N)C(=O)CC1c1ccc(Br)cc1 (stereo unspecified)		41.9 µM (inactive)	34 µM (inactive)	44.9 µM (inactive)		69.5 µM (inactive)	22.3 µM (inactive)	45.6 µM (inactive)	16.6 µM (inactive)		48 µM (inactive)	25.2 µM (inactive)	75.3 µM (inactive)	25.5 µM (inactive)		35.2 µM (inactive)		28.3 µM (inactive)	48.8 µM (inactive)	> 10 µM (inactive)
